Source: patent US20250332176A1, “TREATMENT FOR FIBROSIS AND INHIBITION OF FIBROSIS” (GALMED RESEARCH AND DEVELOPMENT LTD, priority 2022, published 2025)

System: Male C57BL/12 mice
Test: Bleomycin (BLM)-induced pulmonary fibrosis model
Type: in vivo
Conditions: bleomycin 1.5 U/kg intratracheal, prophylactic, day 0→21
Protocol: The following model was employed: • Male C57BL/12 mice,22-26 g • Induction by administration of Bleomycin (1.5 U/kg), intratracheal • Ref. Comp.: Pirfenidone, 100 mg/kg, p.o., BID • Treatment Mode: Prophylactic (from day 0→21)
Pulmonary fibrosis was induced by bleomycin (BLM) and treated with aramchol (meglumine salt). As a reference, results for the known anti-idiophatic pulmonary fibrosis agent pirfenidone are also presented, in FIGS. 26A-26B, where hydroxyproline was used as biomarker for fibrosis (hydroxyproline use as idiophatic pulmonary fibrosis biomarker is disclosed in “Lung fibrosis is ameliorated by pirfenidone fed in diet after the second dose in a three-dose bleomycin-hamster model”, Iyer, Swarnalatha N.; Margolin, S. B.; Hyde, D. M.; Giri, S. N.; Experimental Lung Research (1998), 24(1), 119-132; and “Simple determination of L-hydroxyproline in idiopathic pulmonary fibrosis lung tissues of rats using non-extractive high-performance liquid chromatography coupled with fluorescence detection after pre-column derivatization with novel synthetic 9-acetylimidazol-carbazole”, Ren, Y.; Zhao, J.; Shi, Y.; Chen, C.; Chen, X.; Lv, C.; Journal of Pharmaceutical and Biomedical Analysis 2017, 142, 1-6).

SMILES | histopathology of the lungs (H&E, COL1A1, aSMA; FIG. 27) | Ashcroft score, COL1A1 and aSMA quantification (FIGS. 28A-28E) (compared to pirfenidone)
Cc1ccc(=O)n(-c2ccccc2)c1 [pirfenidone, reference compound] | much more similar to the one without the fibrosis | –
CCCCCCCCCCCCCCCCCCCC(=O)N[C@H]1CC[C@@]2(C)[C@@H](C1)C[C@@H](O)[C@@H]1[C@@H]2C[C@H](O)[C@]2(C)[C@@H]([C@H](C)CCC(=O)O)CC[C@@H]12 [aramchol] | very similar to the one of pirfenidone | treats the fibrosis in better (higher) extent and has more significant effect
